Data on one compound can be found in ChEMBL document CHEMBL2150950, “Effect of 4-aryl-2-methyl-5-nitro-1,4-dihydropyridine-3-carboxylates on the guinea pig papillary muscle and isolated human vena saphena magna that is used for coronary artery bypass grafting” (2011).

Structures are written as SMILES.

A short description of test [1]: Ionotropic effect in guinea pig ventricle papillary muscles assessed as lengthening of 90% repolarized cardiac action potential duration time at 10^-7 M by microelectrode technique relative to untreated control (reference value: 209 to 222 APD50 ms) in presence of 1 x 10^-6 M IKr channel blocker Sotalol. Type of test: functional, Cavia porcellus.
Test [2] is described as follows: Ionotropic effect in guinea pig ventricle papillary muscles assessed as lengthening of 50% repolarized cardiac action potential duration time at 10^-7 M by microelectrode technique relative to untreated control (reference value: 132 to 176 APD50 ms). Type of test: functional, Cavia porcellus, Papillary muscle.
The nature of test [3]: Ionotropic effect in guinea pig ventricle papillary muscles assessed as lengthening of 90% repolarized cardiac action potential duration time at 10^-4 M by microelectrode technique relative to untreated control (reference value: 209 to 222 APD50 ms) in presence of 3.1 x 10^-6 M inward rectifier current blocker BaCl2. Type of test: functional, Cavia porcellus.
Test [4] is described as follows: Ionotropic effect in guinea pig ventricle papillary muscles assessed as lengthening of 90% repolarized cardiac action potential duration time at 10^-6 M by microelectrode technique relative to untreated control (reference value: 209 to 222 APD50 ms) in presence of 3.1 x 10^-6 M inward rectifier current blocker BaCl2. Type of test: functional, Cavia porcellus.
Test [5] in a line: Ionotropic effect in guinea pig ventricle papillary muscles assessed as lengthening of 50% repolarized cardiac action potential duration time at 10^-4 M by microelectrode technique relative to untreated control (reference value: 180 to 192 APD50 ms) in presence of 2 x 10^-5 M KATP channel blocker glibenclamide. The format is functional, Cavia porcellus.
Test [6] can be described thus: Ionotropic effect in guinea pig ventricle papillary muscles assessed as lengthening of 50% repolarized cardiac action potential duration time at 10^-7 M by microelectrode technique relative to untreated control (reference value: 180 to 192 APD50 ms) in presence of 2 x 10^-5 M KATP channel blocker glibenclamide. Type of test: functional, Cavia porcellus.
The nature of test [7]: Ionotropic effect in guinea pig right ventricle papillary muscles assessed as contraction force at 10^-4 M by force transduction assay relative to untreated control (reference value: 100%) in presence of 3.1 x 10^-6 M inward rectifier current blocker BaCl2. The format is functional, Cavia porcellus, Heart right ventricle.
Test [8] is described as follows: Ionotropic effect in guinea pig ventricle papillary muscles assessed as lengthening of 10% repolarized cardiac action potential duration time at 10^-7 M by microelectrode technique relative to untreated control (reference value: 52 to 54 APD10 ms) in presence of 1 x 10^-6 M IKr channel blocker Sotalol. The format is functional, Cavia porcellus.
Test [9] in a line: Ionotropic effect in guinea pig right ventricle papillary muscles assessed as contraction force at 10^-5 M by force transduction assay relative to untreated control (reference value: 100%). The format is functional, Cavia porcellus, Papillary muscle.
Test [10] can be described thus: Ionotropic effect in guinea pig ventricle papillary muscles assessed as lengthening of 25% repolarized cardiac action potential duration time at 10^-4 M by microelectrode technique relative to untreated control (reference value: 84 to 104 APD25 ms). Type of test: functional, Cavia porcellus, Papillary muscle.
Test [11] in a line: Ionotropic effect in guinea pig ventricle papillary muscles assessed as lengthening of 10% repolarized cardiac action potential duration time at 10^-6 M by microelectrode technique relative to untreated control (reference value: 52 to 54 APD10 ms) in presence of 2 x 10^-5 M KATP channel blocker glibenclamide. The format is functional, Cavia porcellus.
Test [12] in a line: Ionotropic effect in guinea pig ventricle papillary muscles assessed as lengthening of 10% repolarized cardiac action potential duration time at 10^-7 M by microelectrode technique relative to untreated control (reference value: 37 to 47 APD10 ms). The format is functional, Cavia porcellus, Papillary muscle.
Test [13] in a line: Ionotropic effect in guinea pig ventricle papillary muscles assessed as lengthening of 50% repolarized cardiac action potential duration time at 10^-5 M by microelectrode technique relative to untreated control (reference value: 180 to 192 APD50 ms) in presence of 3.1 x 10^-6 M inward rectifier current blocker BaCl2. Type of test: functional, Cavia porcellus.
Test [14] in a line: Ionotropic effect in guinea pig ventricle papillary muscles assessed as lengthening of 90% repolarized cardiac action potential duration time at 10^-5 M by microelectrode technique relative to untreated control (reference value: 132 to 176 APD50 ms). The format is functional, Cavia porcellus, Papillary muscle.
Test [15] in a line: Ionotropic effect in guinea pig right ventricle papillary muscles assessed as contraction force at 10^-6 M by force transduction assay relative to untreated control (reference value: 100%) in presence of 2 x 10^-5 M KATP channel blocker glibenclamide. The format is functional, Cavia porcellus, Heart right ventricle.
A short description of test [16]: Ionotropic effect in guinea pig ventricle papillary muscles assessed as lengthening of 90% repolarized cardiac action potential duration time at 10^-7 M by microelectrode technique relative to untreated control (reference value: 209 to 222 APD50 ms) in presence of 3.1 x 10^-6 M inward rectifier current blocker BaCl2. Type of test: functional, Cavia porcellus.
Test [17] in a line: Ionotropic effect in guinea pig ventricle papillary muscles assessed as lengthening of 50% repolarized cardiac action potential duration time at 10^-6 M by microelectrode technique relative to untreated control (reference value: 180 to 192 APD50 ms) in presence of 1 x 10^-6 M IKr channel blocker Sotalol. The format is functional, Cavia porcellus.
Test [18] in a line: Ionotropic effect in guinea pig ventricle papillary muscles assessed as lengthening of 25% repolarized cardiac action potential duration time at 10^-4 M by microelectrode technique relative to untreated control (reference value: 120 to 131 APD25 ms) in presence of 3.1 x 10^-6 M inward rectifier current blocker BaCl2. The format is functional, Cavia porcellus.
A short description of test [19]: Ionotropic effect in guinea pig ventricle papillary muscles assessed as lengthening of 90% repolarized cardiac action potential duration time at 10^-5 M by microelectrode technique relative to untreated control (reference value: 209 to 222 APD50 ms) in presence of 2 x 10^-5 M KATP channel blocker glibenclamide. Type of test: functional, Cavia porcellus.
A short description of test [20]: Ionotropic effect in guinea pig ventricle papillary muscles assessed as lengthening of 25% repolarized cardiac action potential duration time at 10^-5 M by microelectrode technique relative to untreated control (reference value: 120 to 131 APD25 ms) in presence of 3.1 x 10^-6 M inward rectifier current blocker BaCl2. The format is functional, Cavia porcellus.
A short description of test [21]: Ionotropic effect in guinea pig ventricle papillary muscles assessed as lengthening of 25% repolarized cardiac action potential duration time at 10^-6 M by microelectrode technique relative to untreated control (reference value: 84 to 104 APD25 ms). Type of test: functional, Cavia porcellus, Papillary muscle.
Test [22] is described as follows: Ionotropic effect in guinea pig ventricle papillary muscles assessed as lengthening of 90% repolarized cardiac action potential duration time at 10^-7 M by microelectrode technique relative to untreated control (reference value: 209 to 222 APD50 ms) in presence of 2 x 10^-5 M KATP channel blocker glibenclamide. The format is functional, Cavia porcellus.
A short description of test [23]: Ionotropic effect in guinea pig ventricle papillary muscles assessed as lengthening of 25% repolarized cardiac action potential duration time at 10^-5 M by microelectrode technique relative to untreated control (reference value: 84 to 104 APD25 ms). Type of test: functional, Cavia porcellus, Papillary muscle.
The nature of test [24]: Ionotropic effect in guinea pig right ventricle papillary muscles assessed as contraction force at 10^-5 M by force transduction assay relative to untreated control (reference value: 100%) in presence of 2 x 10^-5 M KATP channel blocker glibenclamide. The format is functional, Cavia porcellus, Heart right ventricle.

`CCCOCCOC(=O)C1=C(C)NC=C([N+](=O)[O-])C1c1ccccc1OC(F)F` (centres undefined): the Time in [1] was 224.4 ms; in [2] it was 188.5 ms; in test [3], 267.9 ms; in [4], 250.7 ms; in test [5], 247 ms; in test [6], 209 ms. Besides, the Time in test [8] was determined as 54.2 ms; in test [10], 146.9 ms; in [11] it was 59.6 ms; in [12], 40 ms; in test [13], 231 ms; in [14] it was 238.5 ms. For the same compound, the Time in [16] is 237 ms; in [17], 192 ms; in test [18], 158 ms; in test [19], 265 ms; in test [20], 155 ms; in test [21], 118.6 ms. Further, the Time in [22] is given as 234.5 ms; in test [23], 133 ms. Besides, the Activity in [7] was 204.5%; in test [9], 134%; in test [15], 120%; in [24] it was 163%.
